Results taken from patent publication US20110081297A1, “Novel Substituted Pyrazoles, 1,2,4-Oxadiazoles, and 1,3,4-Oxadiazoles” (priority 2008, published 2011).

Target: human AD brain tissue homogenate (Homo sapiens, UniProt P05067)
Assay: Tissue homogenate binding assay (competition with [3H]-DMAB)
Conditions: human AD brain (frontal cortex) homogenate, 1.5 nM [3H]-DMAB radioligand, room temperature, 90 minutes
Experimental: PET radiotracer candidate compounds were then selected based on their high affinity competition with [^3H]-DMAB in binding to AD brain homogenates. These PET radiotracer candidate compounds were tested to determine if they were effective PgP substrates. Those PET radiotracer candidate compounds with little PgP substrate activity were radiolabeled with [^3H] or [^18F] and tested for binding affinity to human AD brain homogenates as well as binding to human non-AD brain homogenates and in autoradiographic studies using human AD and non-AD brain slices. Candidate radioligands were selected based on their strong binding affinity for human AD brain homogenates, and minimal binding to non-AD control homogenates. A low fraction of non-displaceable binding was also an important criterion. Minimization of white matter binding was an important criterion.
Postmortem frozen human brain samples from donors with clinical diagnosis of Alzheimer's diseases (AD) or normal control subjects (non-AD) were purchased from Analytical Biological Services Inc., at 701-4 Cornell Business Park, Wilmington, Del. 19801. Brain homogenates of frontal cortex were prepared, divided into aliquots and stored at −70° C. prior to use.
[^3H]-DMAB was synthesized at a specific activity of ˜80 Ci/mmol. The final concentration of radioligand for tissue homogenate binding assay was 1.5 nM. Brain homogenates were diluted with phosphate buffered saline (PBS) to 0.4 mg/mL from original 10 mg/mL volume and 200 μl was used in assay for a final concentration of […]. Unlabeled test compounds were dissolved in dimethylsulfoxide (DMSO) at 1 mM. Dilution of test compound to various concentrations was made with PBS containing 2% DMSO. Total binding was defined in the absence of competing compound, and non-displaceable binding was determined in the presence of 1 μM unlabeled self block. Compound dilutions (10×) were added into the assay tube (25 μL each/per tube, separately) containing 200 μL brain homogenate dilution, and the tubes were pre-incubated at room temperature for 10 minutes. Then radioligand dilutions (10×) were added into the assay tube (25 μl each/per tube, separately) to a final volume of 250 μL per tube. Incubation was carried out at room temperature (25° C.) for 90 minutes, and then the assay samples were filtered onto GF/C filters using Skatron 12 well harvester, washing on setting 5-5-5 (˜3×2 ml) ice cold buffer (PBS, pH 7.4). GF/C filter papers for the Skatron harvester were pre-soaked in 0.1% BSA for 1 hour at room temperature before use. Filters were punched into scintillation vials and counted in 2 mL Ultima Gold on Perkin Elmer Tri-Carb 2900TR for 1 minute. The data analysis was done with Prism software. […]

Chain of human AD brain tissue homogenate (P05067 whole entry): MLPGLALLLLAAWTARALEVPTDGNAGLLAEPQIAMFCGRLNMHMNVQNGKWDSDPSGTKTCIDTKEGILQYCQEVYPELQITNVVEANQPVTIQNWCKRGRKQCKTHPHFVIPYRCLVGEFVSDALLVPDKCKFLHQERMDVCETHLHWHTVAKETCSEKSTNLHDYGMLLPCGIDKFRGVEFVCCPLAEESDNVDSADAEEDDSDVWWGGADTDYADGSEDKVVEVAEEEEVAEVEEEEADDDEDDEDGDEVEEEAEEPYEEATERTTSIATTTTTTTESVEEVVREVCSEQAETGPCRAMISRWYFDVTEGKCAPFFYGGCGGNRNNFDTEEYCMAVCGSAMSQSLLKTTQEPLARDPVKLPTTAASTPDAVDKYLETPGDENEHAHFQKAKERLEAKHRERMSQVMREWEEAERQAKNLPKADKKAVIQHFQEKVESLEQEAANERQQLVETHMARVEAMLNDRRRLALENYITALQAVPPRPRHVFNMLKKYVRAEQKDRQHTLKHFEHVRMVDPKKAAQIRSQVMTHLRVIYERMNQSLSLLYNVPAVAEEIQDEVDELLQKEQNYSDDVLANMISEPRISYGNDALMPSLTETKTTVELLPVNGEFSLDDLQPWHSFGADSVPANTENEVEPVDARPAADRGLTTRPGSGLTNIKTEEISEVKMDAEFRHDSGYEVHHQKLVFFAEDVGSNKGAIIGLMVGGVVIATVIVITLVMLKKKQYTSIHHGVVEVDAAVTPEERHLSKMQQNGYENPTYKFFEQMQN

## COc1ccc(-c2noc(-c3cnc(F)c(C)c3)n2)cc1
  IC50: 77 nM

## COc1ccc(-c2noc(-c3ccc4cc[nH]c4c3)n2)cc1
  IC50: 10 nM

## COc1ccc(-c2cc(-c3ccc(N(C)C)cc3)n[nH]2)cc1
  IC50: 10 nM

## CN(C)c1ccc(-c2cc(-c3cnc4[nH]ccc4c3)n[nH]2)cc1
  IC50: 50 nM
